Experimental data published in paper PMC7613620, “Reaction hijacking of tyrosine tRNA synthetase as a whole-of-life-cycle antimalarial strategy” (Science (New York, N.Y.), 2022).

Columns and labels:
[1] = test system: aptamer-regulatable control line; assay: Growth inhibition of aptamer-regulatable control line (luciferase, 72 h); type: cell-based, Plasmodium falciparum
Experimental: 677 parasites using CRISPR-Cas9 and homology-driven repair (55, 56). A line harbourbing an aptamer-
678 regulatable fluorescent protein (eYFP) integrated in the cg6 locus is used as the control (55). […]
696 Stock solutions of ML901, DHA or borrelidin (Cayman Chemicals) were dispensed into 96-well U-bottom
697 BD Falcon™ plates and serially diluted in complete medium to yield final concentrations ranging from 20-
698 0.08 nM. Synchronous ring-stage YRScyt conditional knockdown line and the aptamer-regulatable control
699 line in varying aTc concentrations (high = 50 or 500 nM, low = 1 nM, and no aTc) were distributed into
(§1) 700 the drug plate. Lowest drug treatment and a lethal dose of chloroquine (200 nM) served as reference
(§2) 701 controls. Growth inhibition was analysed after 72 h using the Renilla-Glo(R) Luciferase Assay System (ref
(§3) 702 no E2750 Promega) and the GloMax® Discover Multimode Microplate Reader (Promega), and IC50 values
(§4) 703 were obtained from corrected dose-response curves using GraphPad Prism (version 8; GraphPad Software). […]
706 CRISPR/Cas9 was used to generate parasites encoding the S234C mutation in exon 2 of PfYRS, as shown
707 in Suppl Figure 6. Two guide RNAs (gRNA1: […] and gRNA2:
708 […]) were selected using Benchling (benchling.com), and cloned into the
709 pDC2-coCas9-gRNA plasmid essentially as described previously (58). A donor template of 645 bp, […]

[2] = Solubility; type: physicochemical
[3] = test system: P. falciparum Dd2; assay: 72-h sensitivity of wildtype Dd2 parent line; type: cell-based; conditions: Plasmodium falciparum, 72-h exposure
Experimental: as §1, §2, §3, §4
729 Cam 3.II_Rev (25) trophozoite-infected RBCs (25-30 h p.i.) were incubated with inhibitor for 3 h at 10%
730 hematocrit and 5% parasitemia. The RBC pellet was washed 3 x in PBS + cOmplete. Cells were centrifuged
731 at 380 x g for 5 min and the pelleted cells lysed by resuspension in PBS + 0.05% saponin for 5 min on ice.

Nc1ncnc2c1c(OC(F)F)nn2[C@@H]1O[C@H](COS(N)(=O)=O)[C@@H](O)[C@H]1O [ML901]
Fold change in IC50 (high aTc/ no aTc), control line [1]: no change
IC50 ([1]; Plasmodium falciparum, read-out: IC50 against control line): 2.4 ± 0.2 nM
solubility [2]: > 200 µM
IC50 [3]: 2.2 ± 0.3 nM
